Test results as given in patent US20020061888A1, “Combination therapy for the prophylaxis and treatment of hyperlipidemic conditions and disorders” (priority 2000, published 2002).
“And” between values parts separate entries of the source, which are not always exact repeats. Equal values may be shown once.

System: Male beagle dogs
Test: Serum total cholesterol in beagle dogs (serum lipid measurements)
Format: in vivo
Conditions: for SERUM TOTAL CHOLESTEROL / TOTAL SERUM CHOLESTEROL: n = 6; for decrease in serum total cholesterol concentration: compared to vehicle; for decrease in serum total cholesterol: after four weeks, vs pretreatment
Method: Male beagle dogs (9-10 kg) obtained from Marshall farms were fed a normal chow diet once a day for a two hour interval and given water ad libitum. Prior to initiating treatment, the dogs were weighed and blood samples were drawn from the cephalic vein of each dog following an overnight fast to evaluate pretreatment serum total cholesterol levels at the start of the study. […] All doses were administered in gelatin capsules per os to each dog between 9:00-9:30 a.m. prior to feeding. All animals were fed between 9:30-10:00 a.m. and were allowed two hours to eat, at which time any remaining food was removed. […] Animals were dosed daily for three weeks and blood samples were taken at the end of each week after an overnight fast for comparison with pretreatment serum total cholesterol levels. Three consecutive 24 hour fecal samples were collected for each group during the last 72 hours of each week and used to measure the concentration of fecal biles acids excreted during that time period.
Blood was collected from the cephalic vein of each dog into serum separator tubes. The blood was centrifuged at 900×g for 20 minutes at room temperature and the serum decanted. All analyses were performed on a Cobas Mira Clinical Analyzer System (Roche Diagnostic Systems, Branchburg, N.J.) using Roche Diagnostic reagents for enzymatic determinations of serum cholesterol. Commercial calibrator and quality control materials were analyzed with each run to verify assay accuracy and precision. A two-tailed, paired Students t-test was used to determine the statistical significance of changes in serum total cholesterol in treated dogs compared to pretreatment values. A one-way analysis of variance (“ANOVA”) was used to compare each pair of treatment groups to determine the statistical significance of changes in serum total cholesterol.
Beagle dogs also were administered pravastatin to evaluate the monotherapeutic effect of pravastatin on serum total cholesterol.
Male beagle dogs (9-10 kg) obtained from Marshall farms were fed once a day for two hours and given water ad libitum. Prior to initiating treatment, blood samples were drawn from the cephalic vein of each dog to evaluate pretreatment total serum cholesterol levels at the start of the study.
For the dose ranging study, the dogs were assigned to one of five groups based on mean body weights and serum total cholesterol levels. Each group received one of the following dosages: (1) vehicle (empty capsule, afternoon dosing), (2) 3.0 mg/kg/day pravastatin (afternoon dosing), (3) 10 mg/kg/day pravastatin (afternoon dosing), (4) 30 mg/kg/day pravastatin (afternoon dosing), and (5) 10 mg/kg/day pravastatin (morning dosing). One capsule containing pravastatin was administered per os to each dog between 9:00-9:30 a.m. prior to feeding for the 10 mg/kg/day morning dosing group and between 2:30-3:00 p.m. for the afternoon dosing groups. All animals were fed between 9:30-10:00 a.m. and were allowed two hours to eat, at which time any remaining food was removed. […] Animals were dosed daily for four weeks and blood samples were taken at the end of each week after an overnight fast for comparison with pretreatment serum total cholesterol levels.
Following this initial four week dose-ranging study, dogs from the two groups receiving 10 mg/kg/day pravastatin (a.m. and p.m. dosing groups) were randomized into two new treatment groups based on serum total cholesterol levels to initiate the combination treatment study. […] Dosing continued in this manner for an additional four weeks (Weeks 5-8) with blood and 48-hour fecal samples collected at the end of each week for serum lipid measurements and fecal bile acid determinations, respectively.

## CC[C@H](C)C(=O)O[C@H]1C[C@H](O)C=C2C=C[C@H](C)[C@H](CC[C@@H](O)C[C@@H](O)CC(=O)O)[C@H]21 [pravastatin, Pravastatin]
Pravastatin 0.25 mg/kg/day, Week 1
  % change in serum total cholesterol compared to the pretreatment value of each group: (+2) %
Pravastatin 0.25 mg/kg/day, Week 1, mean ± SEM
  SERUM TOTAL CHOLESTEROL: 157 ± 10 mg/dL
Pravastatin 0.25 mg/kg/day, Week 2
  % change in serum total cholesterol compared to the pretreatment value of each group: (+3) %
Pravastatin 0.25 mg/kg/day, Week 2, mean ± SEM
  SERUM TOTAL CHOLESTEROL: 159 ± 12 mg/dL
Pravastatin 0.25 mg/kg/day, Week 3
  % change in serum total cholesterol compared to the pretreatment value of each group: (0) %
Pravastatin 0.25 mg/kg/day, Week 3, mean ± SEM
  SERUM TOTAL CHOLESTEROL: 154 ± 13 mg/dL
Pravastatin 0.25 mg/kg/day, one week of treatment
  decrease in serum total cholesterol concentration: 2%
Pravastatin 0.25 mg/kg/day, three weeks of treatment
  decrease in serum total cholesterol concentration: 0%
Pravastatin 1.0 mg/kg/day, Week 1
  % change in serum total cholesterol compared to the pretreatment value of each group: (−1) %
Pravastatin 1.0 mg/kg/day, Week 1, mean ± SEM
  SERUM TOTAL CHOLESTEROL: 153 ± 11 mg/dL
Pravastatin 1.0 mg/kg/day, Week 2
  % change in serum total cholesterol compared to the pretreatment value of each group: (−4) %
Pravastatin 1.0 mg/kg/day, Week 2, mean ± SEM
  SERUM TOTAL CHOLESTEROL: 149 ± 11^2 mg/dL
Pravastatin 1.0 mg/kg/day, Week 3
  % change in serum total cholesterol compared to the pretreatment value of each group: (−8) %
Pravastatin 1.0 mg/kg/day, Week 3, mean ± SEM
  SERUM TOTAL CHOLESTEROL: 143 ± 10^2 mg/dL
Pravastatin 1.0 mg/kg/day, one week of treatment
  decrease in serum total cholesterol concentration: 1%
Pravastatin 1.0 mg/kg/day, three weeks of treatment
  decrease in serum total cholesterol concentration: 8%
Pravastatin 3.0 mg/kg/day pm dosing, Week 1
  % change in serum total cholesterol compared to the pretreatment value of each group: (−1) %
Pravastatin 3.0 mg/kg/day pm dosing, Week 1, mean ± SEM
  TOTAL SERUM CHOLESTEROL: 157 ± 16 mg/dL
Pravastatin 3.0 mg/kg/day pm dosing, Week 2
  % change in serum total cholesterol compared to the pretreatment value of each group: (−16) %
Pravastatin 3.0 mg/kg/day pm dosing, Week 2, mean ± SEM
  TOTAL SERUM CHOLESTEROL: 133 ± 11^3 mg/dL
Pravastatin 3.0 mg/kg/day pm dosing, Week 3
  % change in serum total cholesterol compared to the pretreatment value of each group: (−11) %
Pravastatin 3.0 mg/kg/day pm dosing, Week 3, mean ± SEM
  TOTAL SERUM CHOLESTEROL: 140 ± 12^3 mg/dL
Pravastatin 3.0 mg/kg/day pm dosing, Week 4
  % change in serum total cholesterol compared to the pretreatment value of each group: (−16) %
Pravastatin 3.0 mg/kg/day pm dosing, Week 4, mean ± SEM
  TOTAL SERUM CHOLESTEROL: 132 ± 10^3 mg/dL
Pravastatin 3 mg/kg/day, four week dose ranging study
  lowering of serum total cholesterol: 16%
Pravastatin 4.0 mg/kg/day, Week 1
  % change in serum total cholesterol compared to the pretreatment value of each group: (−6) %
Pravastatin 4.0 mg/kg/day, Week 1, mean ± SEM
  SERUM TOTAL CHOLESTEROL: 148 ± 10^2 mg/dL
Pravastatin 4.0 mg/kg/day, Week 2
  % change in serum total cholesterol compared to the pretreatment value of each group: (−7) %
Pravastatin 4.0 mg/kg/day, Week 2, mean ± SEM
  SERUM TOTAL CHOLESTEROL: 146 ± 8 mg/dL
Pravastatin 4.0 mg/kg/day, Week 3
  % change in serum total cholesterol compared to the pretreatment value of each group: (−11) %
Pravastatin 4.0 mg/kg/day, Week 3, mean ± SEM
  SERUM TOTAL CHOLESTEROL: 139 ± 9^2 mg/dL
Pravastatin 4.0 mg/kg/day, one week of treatment
  decrease in serum total cholesterol concentration: 6%
Pravastatin 4.0 mg/kg/day, three weeks of treatment
  decrease in serum total cholesterol concentration: 11%
Pravastatin 10 mg/kg/day a.m. dosing
  decrease in serum total cholesterol: 16%
Pravastatin 10.0 mg/kg/day am dosing, Week 1
  % change in serum total cholesterol compared to the pretreatment value of each group: (+6) %
Pravastatin 10.0 mg/kg/day am dosing, Week 1, mean ± SEM
  TOTAL SERUM CHOLESTEROL: 164 ± 12 mg/dL
Pravastatin 10.0 mg/kg/day am dosing, Week 2
  % change in serum total cholesterol compared to the pretreatment value of each group: (−13) %
Pravastatin 10.0 mg/kg/day am dosing, Week 2, mean ± SEM
  TOTAL SERUM CHOLESTEROL: 135 ± 15^3 mg/dL
Pravastatin 10.0 mg/kg/day am dosing, Week 3
  % change in serum total cholesterol compared to the pretreatment value of each group: (−15) %
Pravastatin 10.0 mg/kg/day am dosing, Week 3, mean ± SEM
  TOTAL SERUM CHOLESTEROL: 131 ± 10^3 mg/dL
Pravastatin 10.0 mg/kg/day am dosing, Week 4
  % change in serum total cholesterol compared to the pretreatment value of each group: (−16) %
Pravastatin 10.0 mg/kg/day am dosing, Week 4, mean ± SEM
  TOTAL SERUM CHOLESTEROL: 130 ±7 mg/dL and 130 ± 7^3 mg/dL
Pravastatin 10 mg/kg/day p.m. dosing
  decrease in serum total cholesterol: 21%
Pravastatin 10.0 mg/kg/day pm dosing, Week 1
  % change in serum total cholesterol compared to the pretreatment value of each group: (−8) %
Pravastatin 10.0 mg/kg/day pm dosing, Week 1, mean ± SEM
  TOTAL SERUM CHOLESTEROL: 146 ± 10 mg/dL
Pravastatin 10.0 mg/kg/day pm dosing, Week 2
  % change in serum total cholesterol compared to the pretreatment value of each group: (−19) %
Pravastatin 10.0 mg/kg/day pm dosing, Week 2, mean ± SEM
  TOTAL SERUM CHOLESTEROL: 129 ± 10^3 mg/dL
Pravastatin 10.0 mg/kg/day pm dosing, Week 3
  % change in serum total cholesterol compared to the pretreatment value of each group: (−19) %
